SMILES strings stand for the structures.

The test system of one experiment is circulating lymphocytes. Description: Assessment of in vivo efficacy: circulating lymphocytes after oral administration to Wistar rats. To be noted: Rattus norvegicus, Lymphocyte, normotensive male Wistar rats, compared to vehicle group, read-out: Lymphocyte counts; for change in vivo at 10 mg/kg: 6 h after oral administration of 10 mg/kg. Set-up: species or system rat. How it is done:
Assessment of In Vivo Efficacy
The efficacy of the compounds of Formula (I) is assessed by measuring the circulating lymphocytes after oral administration of 3 to 30 mg/kg of a compound of Formula (I) to normotensive male Wistar rats. The animals are housed in climate-controlled conditions with a 12 h-light/dark cycle, and have free access to normal rat chow and drinking water. […] Full blood is subjected to hematology using Advia Hematology system (Bayer Diagnostics, Zurich, Switzerland).
All data are presented as mean±SEM. Statistical analyses are performed by analysis of variance (ANOVA) using Statistica (StatSoft) and the Student-Newman-Keuls procedure for multiple comparisons. The null hypothesis is rejected when p<0.05.

Experiment [1] concerns the target T1, human S1P1 (EDG1) receptor (Homo sapiens, UniProt P21453).
T1 construct: host or cells: U2OS (Tango EDG1-bla U2OS)
Description: S1P1 β-arrestin recruitment (Tango) assay to determine EC50 values. Format: cell-based. To be noted: Tango-EDG1 bla U2OS cells, 16 h incubation. From the text:
S1P1 β-Arrestin Recruitment (Tango) Assay to Determine EC50 Values
Upon ligand activation, G protein-coupled receptors (GPCR) trigger two pathways that independently transduce signals to the cell: one through heterotrimeric GTP-binding proteins (G proteins) and one through β-arrestins. Agonist-induced GPCRs recruit β-arrestin proteins, which then bind to the carboxy-terminal domain of ligand-activated GPCRs. The amount of β-arrestin recruitment can be used to assess the potency and efficacy of GPCR activating ligands.
To measure the potency and efficacy of compounds as S1P1 (EDG1) receptor agonists, Tango™-EDG1 bla U2OS cells (Invitrogen, USA, Catalog #K1520) are used. The Tango™ GPCR technology is based on GeneBLAzer β-lactamase reporter cell assays, which uses a mammalian-optimized β-lactamase reporter gene (bla) combined with a FRET-enabled substrate. The host cells, U2OS, stably express a human S1P1 (EDG1) receptor/transcription factor (TF) fusion protein. The cells also express a recombinant protease tagged β-arrestin protein, which is recruited to the S1P1 receptor upon ligand stimulation and specifically cleaves the S1P1-TF fusion protein. The released TF activates the β-lactamase (bla) reporter gene. To measure the reporter gene activity, cells are loaded with a fluorescent substrate containing two chemically coupled fluorophores, coumarin and fluorescein. […] In the presence of bla, the chemical bond is cleaved and FRET is inhibited. […] The amount of β-arrestin recruitment is proportional to the increase in blue fluorescence.
Tango™-EDG1 bla U2OS cells are cultivated in McCoy's 5A containing 10% dialyzed FBS, 0.1 mM NEAA, 25 mM HEPES, 1 mM sodium pyruvate, 1% Penicillin/Streptomycin, 200 μg/ml zeocin, 50 μg/ml hygromycin and 100 μg/ml geneticin (Invitrogen, USA). Cells are detached with trypsin, resuspended in medium and then counted.
Compounds (10 mM stock in DMSO) are diluted first in DMSO. The pre-diluted compounds solutions are then transferred into Assay Medium/0.1% fatty acid free BSA to reach a fourfold concentrated compound stock, which is applied to the cells to reach the final compound concentrations that range from 10 μM to 0.0005 nM (0.5% final DMSO). Cells are then incubated for 16 h at 37° C. and 5% CO2.

T1 sequence (P21453 whole entry): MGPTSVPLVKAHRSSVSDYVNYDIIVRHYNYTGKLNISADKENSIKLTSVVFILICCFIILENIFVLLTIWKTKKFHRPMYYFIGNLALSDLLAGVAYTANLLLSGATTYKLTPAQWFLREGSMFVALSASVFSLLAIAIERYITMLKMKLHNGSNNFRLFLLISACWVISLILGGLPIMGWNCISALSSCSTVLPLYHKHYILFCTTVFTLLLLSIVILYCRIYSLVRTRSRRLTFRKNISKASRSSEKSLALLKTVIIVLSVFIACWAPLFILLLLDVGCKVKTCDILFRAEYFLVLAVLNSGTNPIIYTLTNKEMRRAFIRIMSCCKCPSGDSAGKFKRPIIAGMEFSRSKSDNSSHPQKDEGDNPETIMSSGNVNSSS

As usually defined, the EC50 is the concentration at which the effect is half-maximal. Low values mean greater potency, high ones weaker potency. Take `COc1cc(-c2nc(-c3cc(Cl)c(OCCNCCC(=O)O)c(OC)c3)no2)cc(C2CCCC2)n1` [Example 37, 3-((2-(2-Chloro-4-(5-(2-cyclopentyl-6-methoxypyridin-4-yl)-1,2,4-oxadiazol-3-yl)-6-methoxyphenoxy)ethyl)amino)propanoic acid]: in the experiment with circulating lymphocytes, the change in vivo at 10 mg/kg is -71%. This compound also displayed a 50% effective concentration (EC50) in experiment [1] of 0.2 nM.

For `CCc1cc(-c2noc(-c3cc(OC)nc(C4CCCC4)c3)n2)cc(C)c1OCCNC(=O)CC(=O)O` [Example 49, 3-((2-(4-(5-(2-Cyclopentyl-6-methoxypyridin-4-yl)-1,2,4-oxadiazol-3-yl)-2-ethyl-6-methylphenoxy)ethyl)amino)-3-oxopropanoic acid], the change in vivo at 3 mg/kg with circulating lymphocytes (6 h after an oral dose of 3 mg/kg) is -49%. Further, it took 0.05 nM to reach a half-maximal effect in experiment [1] (EC50).

Turning to `COc1cc(-c2nc(-c3cc(Cl)c(OCCCC(=O)NCCO)c(OC)c3)no2)cc(C2CCCC2)n1` [Example 36, 4-(2-Chloro-4-(5-(2-cyclopentyl-6-methoxypyridin-4-yl)-1,2,4-oxadiazol-3-yl)-6-methoxyphenoxy)-N-(2-hydroxyethyl)butanamide], the change in vivo at 10 mg/kg in the experiment with circulating lymphocytes was -73%. A half-maximal response in experiment [1] (EC50) required 1.7 nM.

In the case of `CCc1cc(-c2noc(-c3cc(OC)nc(C4CCCC4)c3)n2)cc(C)c1OC[C@@H](O)CNCCC(=O)O` [Example 10], the change in vivo at 10 mg/kg in the experiment on circulating lymphocytes is -51%. The EC50 in experiment [1] was 0.06 nM.

As to `CCc1cc(-c2nc(-c3cc(OC)nc(C4CCCC4)c3)no2)cc(C)c1OCCNCCC(=O)O` [Example 57, 3-((2-(4-(3-(2-Cyclopentyl-6-methoxypyridin-4-yl)-1,2,4-oxadiazol-5-yl)-2-ethyl-6-methylphenoxy)ethyl)amino)propanoic acid], the change in vivo at 10 mg/kg in the experiment with circulating lymphocytes was -74%. The EC50 in experiment [1] was 0.05 nM.

Consider `CCc1cc(-c2noc(-c3cc(OC)nc(C4CCCC4)c3)n2)cc(C)c1OCCCN(C)CC(=O)O` [Example 20, 2-((3-(4-(5-(2-Cyclopentyl-6-methoxypyridin-4-yl)-1,2,4-oxadiazol-3-yl)-2-ethyl-6-methylphenoxy)propyl)(methyl)amino)acetic acid], for which the change in vivo at 10 mg/kg in the experiment on circulating lymphocytes was -57%. In experiment [1], this compound came in with an EC50 of 1.5 nM.

Consider `CCc1cc(-c2nnc(-c3cc(OC)nc(C4CCCC4)c3)o2)cc(C)c1OCCCC(=O)O` [Example 61, 4-(4-(5-(2-Cyclopentyl-6-methoxypyridin-4-yl)-1,3,4-oxadiazol-2-yl)-2-ethyl-6-methylphenoxy)butanoic acid], for which the change in vivo at 10 mg/kg with circulating lymphocytes was -27%. In experiment [1], this compound yielded an EC50 of 0.1 nM.

On to `CCc1cc(-c2noc(-c3cc(OC)nc(C4CCCC4)c3)n2)cc(C)c1OC[C@@H](O)CNC(=O)CCC(=O)O` [Example 15, (S)-4-((3-(4-(5-(2-Cyclopentyl-6-methoxypyridin-4-yl)-1,2,4-oxadiazol-3-yl)-2-ethyl-6-methylphenoxy)-2-hydroxypropyl)amino)-4-oxobutanoic acid], for which the change in vivo at 10 mg/kg with circulating lymphocytes is -55%. This compound also came in with an EC50 in experiment [1] of 0.02 nM.

With `CCc1cc(-c2noc(-c3cc(OC)nc(C4CCCC4)c3)n2)cc(C)c1OC[C@@H](O)CN(C)CC(=O)O` [Example 11, (S)-2-((3-(4-(5-(2-Cyclopentyl-6-methoxypyridin-4-yl)-1,2,4-oxadiazol-3-yl)-2-ethyl-6-methylphenoxy)-2-hydroxypropyl)(methyl)amino)acetic acid], the change in vivo at 10 mg/kg in the experiment on circulating lymphocytes was -60%. Besides, in experiment [1], the EC50 is 0.2 nM.

Take `CCc1cc(-c2nc(-c3cc(OC)nc(C4CCCC4)c3)no2)cc(C)c1OCC(=O)O` [Example 53, 2-(4-(3-(2-Cyclopentyl-6-methoxypyridin-4-yl)-1,2,4-oxadiazol-5-yl)-2-ethyl-6-methylphenoxy)acetic acid]: in the experiment on circulating lymphocytes, the change in vivo at 10 mg/kg is -72%. This compound had an EC50 in experiment [1] of 1.2 nM.

With `COc1cc(-c2nc(-c3cc(C)c(OCCCC(=O)O)c(Cl)c3)no2)cc(C2CCCC2)n1` [Example 40, 4-(2-Chloro-4-(5-(2-cyclopentyl-6-methoxypyridin-4-yl)-1,2,4-oxadiazol-3-yl)-6-methylphenoxy)butanoic acid], the change in vivo at 10 mg/kg in the experiment on circulating lymphocytes is -65%. Moreover, in experiment [1], the response was half-maximal at 0.05 nM (EC50).

With `CCc1cc(-c2noc(-c3cc(OC)nc(C4CCCC4)c3)n2)cc(C)c1OCCCNCC(=O)O` [Example 18, 2-((3-(4-(5-(2-Cyclopentyl-6-methoxypyridin-4-yl)-1,2,4-oxadiazol-3-yl)-2-ethyl-6-methylphenoxy)propyl)amino)acetic acid], in the experiment with circulating lymphocytes, the change in vivo at 10 mg/kg is -24%. This compound also gave an EC50 in experiment [1] of 0.3 nM.

With `CCc1cc(-c2noc(-c3cc(OC)nc(C4CCCC4)c3)n2)cc(C)c1OCCCN(C)C(=O)CCC(=O)O` [Example 34, 4-((3-(4-(5-(2-Cyclopentyl-6-methoxypyridin-4-yl)-1,2,4-oxadiazol-3-yl)-2-ethyl-6-methylphenoxy)propyl)(methyl)amino)-4-oxobutanoic acid], the change in vivo at 10 mg/kg in the experiment with circulating lymphocytes was -66%. For the same compound, in experiment [1], the EC50 came out at 0.515 nM.

Turning to `CCc1cc(-c2noc(-c3cc(OC)nc(C4CCCC4)c3)n2)cc(C)c1OC[C@@H](O)CN1CC(C(=O)O)C1` [Example 12, (S)-1-(3-(4-(5-(2-Cyclopentyl-6-methoxypyridin-4-yl)-1,2,4-oxadiazol-3-yl)-2-ethyl-6-methylphenoxy)-2-hydroxypropyl)azetidine-3-carboxylic acid], the change in vivo at 10 mg/kg in the experiment on circulating lymphocytes is -61%. The compound further registered an EC50 in experiment [1] of 0.3 nM.

For the compound `COc1cc(-c2nc(-c3cc(C)c(OCCN4CC(C(=O)O)C4)c(Cl)c3)no2)cc(C2CCCC2)n1` [Example 44, 1-(2-(2-Chloro-4-(5-(2-cyclopentyl-6-methoxypyridin-4-yl)-1,2,4-oxadiazol-3-yl)-6-methylphenoxy)ethyl)azetidine-3-carboxylic acid], the change in vivo at 10 mg/kg in the experiment on circulating lymphocytes is -62%. This compound also had an EC50 in experiment [1] of 0.1 nM.

Take `CCc1cc(-c2noc(-c3cc(OC)nc(C4CCCC4)c3)n2)cc(C)c1OCCCN(C)C(=O)CO` [Example 30, N-(3-(4-(5-(2-Cyclopentyl-6-methoxypyridin-4-yl)-1,2,4-oxadiazol-3-yl)-2-ethyl-6-methylphenoxy)propyl)-2-hydroxy-N-methylacetamide]: the change in vivo at 10 mg/kg in the experiment on circulating lymphocytes was -75%. This compound also yielded a 50% effective concentration (EC50) in experiment [1] of 7.98 nM.

On to `CCc1cc(-c2nnc(-c3cc(OC)nc(C4CCCC4)c3)o2)cc(C)c1OCCN1CC(C(=O)O)C1` [Example 63, 1-(2-(4-(5-(2-Cyclopentyl-6-methoxypyridin-4-yl)-1,3,4-oxadiazol-2-yl)-2-ethyl-6-methylphenoxy)ethyl)azetidine-3-carboxylic acid], for which the change in vivo at 10 mg/kg in the experiment with circulating lymphocytes is -71%. In addition, the response in experiment [1] was half-maximal at 1.1 nM (EC50).

With `CCc1cc(-c2noc(-c3cc(OC)nc(C4CCCC4)c3)n2)cc(C)c1OC[C@@H](O)CNCC(=O)O` [Example 9, (S)-2-((3-(4-(5-(2-Cyclopentyl-6-methoxypyridin-4-yl)-1,2,4-oxadiazol-3-yl)-2-ethyl-6-methylphenoxy)-2-hydroxypropyl)amino)acetic acid], the change in vivo at 10 mg/kg with circulating lymphocytes was -72%. The same compound came in with an EC50 in experiment [1] of 0.07 nM.

With `CCc1cc(-c2noc(-c3cc(OC)nc(C4CCCC4)c3)n2)cc(C)c1OCCCNC(=O)CO` [Example 29, N-(3-(4-(5-(2-Cyclopentyl-6-methoxypyridin-4-yl)-1,2,4-oxadiazol-3-yl)-2-ethyl-6-methylphenoxy)propyl)-2-hydroxyacetamide], the change in vivo at 10 mg/kg with circulating lymphocytes is -76%. This compound also showed an EC50 in experiment [1] of 0.265 nM.

On to `CCc1cc(-c2nc(-c3cc(OC)nc(C4CCCC4)c3)no2)cc(C)c1OCCNCC(=O)O` [Example 55, 2-((2-(4-(3-(2-Cyclopentyl-6-methoxypyridin-4-yl)-1,2,4-oxadiazol-5-yl)-2-ethyl-6-methylphenoxy)ethyl)amino)acetic acid], for which, in the experiment on circulating lymphocytes, the change in vivo at 10 mg/kg is -72%. Besides, the EC50 in experiment [1] was determined as 0.1 nM.

As for `CCc1cc(-c2noc(-c3cc(OC)nc(C4CCCC4)c3)n2)cc(C)c1OCCNCCCC(=O)O` [Example 39, 4-((2-(4-(5-(2-Cyclopentyl-6-methoxypyridin-4-yl)-1,2,4-oxadiazol-3-yl)-2-ethyl-6-methylphenoxy)ethyl)amino)butanoic acid], in the experiment on circulating lymphocytes, the change in vivo at 10 mg/kg was -66%. Moreover, the EC50 in experiment [1] was 0.1 nM.

Values taken from patent US9133179B2, “2-methoxy-pyridin-4-yl-derivatives” (Actelion Pharmaceuticals Ltd., priority 2011, dated 2015).
